Results on 37 compounds are retold here after ChEMBL document CHEMBL1208774, “3-D-QSAR and docking studies on the neuronal choline transporter” (Bioorg Med Chem Lett, 2010).

Positions count from the first letter of the chain named.

One experiment addresses T1, High affinity choline transporter 1 (Mus musculus, UniProt Q8BGY9).
T1 sequence (Q8BGY9 whole entry): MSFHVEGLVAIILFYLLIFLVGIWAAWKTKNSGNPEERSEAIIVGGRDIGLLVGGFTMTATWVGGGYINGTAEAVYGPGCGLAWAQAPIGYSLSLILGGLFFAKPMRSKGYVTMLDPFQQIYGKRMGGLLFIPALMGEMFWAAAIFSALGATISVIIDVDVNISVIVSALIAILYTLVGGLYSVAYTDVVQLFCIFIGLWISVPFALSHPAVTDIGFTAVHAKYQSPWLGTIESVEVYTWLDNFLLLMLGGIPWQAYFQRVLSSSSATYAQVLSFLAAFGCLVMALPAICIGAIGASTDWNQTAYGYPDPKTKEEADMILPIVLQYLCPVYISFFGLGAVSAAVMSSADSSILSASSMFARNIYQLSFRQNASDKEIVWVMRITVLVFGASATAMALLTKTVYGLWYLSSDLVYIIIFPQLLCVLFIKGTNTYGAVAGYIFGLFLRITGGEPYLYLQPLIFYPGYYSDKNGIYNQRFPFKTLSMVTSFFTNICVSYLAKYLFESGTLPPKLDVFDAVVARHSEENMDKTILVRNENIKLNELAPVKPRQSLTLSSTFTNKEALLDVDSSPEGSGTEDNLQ
In words: Inhibition of [3H]choline uptake at choline transporter 1 in mouse brain synaptosome. It is filed as tissue-based.
On to `CN1CCC[C@H]1c1cccnc1` [NICOTINE], for which affinity was put at a Ki of 520 µM.

As for `C[N+](C)(C)C` [TETRAMETHYLAMMONIUM], the Ki – broadly, a measure of affinity in units of concentration, obtained from inhibition or displacement – is 30.1 µM.

`CCOC(=O)CC[N+](C)(C)C` gave a Ki of 340 µM. Still for that read-out and setting: the same measure for `CNCCO`: 3800 µM. On the same count and under the same terms, in the case of `C[N+](C)(C)c1ccccc1` it was 75.2 µM; in that of `CCCCCCCC[N+]1(CCC#Cc2cc(OC)c(OC)c(OC)c2)CCCCC1`, 0.23 µM; in that of `Cc1cc(C)nc(C)c1`, 107 µM. The same measure, in the same setting: in the case of `CC[N+]1(CCC#Cc2cc(OC)c(OC)c(OC)c2)CCCC1` it was 0.2 µM. Consider `C[n+]1cccc(C(N)=O)c1`, for which the affinity, expressed as Ki, was 361 µM. The same measure, in the same setting: in the case of `C[N+](C)(C)CCO.[Cl-]` [CHOLINE CHLORIDE] it was 0.681 µM; in that of `C[N+](C)(C)CCCO`, 2.2 µM.

Compound `COc1cc(C#CCC[N+](C)(C)C)cc(OC)c1OC` showed a Ki of 2 µM. As to `Nc1ccncc1` [DALFAMPRIDINE], the affinity, expressed as Ki, was 481 µM.

As to `CNC` [DIMETHYLAMINE], the Ki is 9420 µM. On to `CCCCCCCCCCCCCCCC[n+]1ccccc1`, for which the Ki is 32.1 µM. Still for that read-out and setting: the same measure for `CCCCC[N+]1(CCC#Cc2cc(OC)c(OC)c(OC)c2)CCCCC1`: 0.02 µM. On the same count and under the same terms, the same measure for `CN(C)CCO` [DIMETHYLAMINOETHANOL]: 55.7 µM; for `OCC[N+]12CCC(CC1)CC2`: 0.64 µM; for `CN(C)C` [TRIMETHYLAMMONIUM]: 340 µM. The compound `CN(C)CCCO` showed a Ki of 290 µM. Still for that read-out and setting: the same measure for `C[N+]12CCC(CC1)C(=O)C2`: 0.521 µM; for `C[N+]12CCC(CC1)CC2`: 4.7 µM; for `CC[N+](CC)(CC)CCC#Cc1cc(OC)c(OC)c(OC)c1`: 0.701 µM.

In the case of `C1CN2CCC1CC2`, the Ki was 40.1 µM. Consider `COc1cc(C#CCC[N+]23CCC(CC2)C3)cc(OC)c1OC`, for which the Ki was 0.05 µM. Same read-out and setting: the same measure for `CCCC[N+](CCCC)(CCCC)CCCC` [TETRABUTYLAMMONIUM]: 1050 µM; for `CC[N+]1(CCC#Cc2cc(OC)c(OC)c(OC)c2)CCCCC1`: 0.18 µM. Consider `CN` [METHYLAMINE], for which the affinity, expressed as Ki, was 35100 µM.

The compound `COc1cc(C#CCC[N+]23CCC(CC2)CC3)cc(OC)c1OC` gave a Ki of 0.09 µM. The same measure, in the same setting: the same measure for `CC(=O)OCCC[N+](C)(C)C`: 190 µM. In turn, `COC(=O)CC[N+](C)(C)C` had a Ki of 270 µM. Still for that read-out and setting: in the case of `C[N+](C)(C)CCCCO` it was 310 µM; in that of `CC[N+](CC)(CC)CC` [TETRYLAMMONIUM], 260 µM. On the same count and under the same terms, in the case of `CC1C(O)C2CC[N+]1(C)CC2` (configuration not stated) it was 210 µM; in that of `C[N+]12CCC(O)(CC1)CC2`, 72.1 µM; in that of `Nc1ccncc1N` [AMIFAMPRIDINE], 820 µM.

The target in a further experiment is T2, High affinity choline transporter 1 (Rattus norvegicus, UniProt Q9JMD7).
T2 sequence (Q9JMD7 whole entry): T1 sequence (Q8BGY9 whole entry) with S2P, P35A, Y307F, L386F, S467P, V513I, A519S
The experiment is described as follows: Binding affinity to rat choline transporter 1.
For `C[N+]1(C)CCO[C@@](O)(c2ccc(-c3ccc([C@@]4(O)C[N+](C)(C)CCO4)cc3)cc2)C1` [HEMICHOLINIUM DIBROMIDE], the affinity corresponds to a Ki of 0.01 µM.
